# Source: article PMC7226205 (Biomolecules, 2020)
# Assays:
# RUVBL2 = biological target: T1, RUVBL2 (Homo sapiens, UniProt Q9Y230); assay: ATP/NADH coupled ATPase assay; type: biochemical
# T1 construct: recombinant from E. coli BL21(DE3) pRIL
# ScRvb2 = biological target: T2, ScRvb2 (Saccharomyces cerevisiae, UniProt Q12464); assay: ATP/NADH coupled ATPase assay; conditions: 10 µM protomer, pH 7.5, 37 °C
# T2 construct: gene RVB2
# T2 sequence (Q12464 whole entry): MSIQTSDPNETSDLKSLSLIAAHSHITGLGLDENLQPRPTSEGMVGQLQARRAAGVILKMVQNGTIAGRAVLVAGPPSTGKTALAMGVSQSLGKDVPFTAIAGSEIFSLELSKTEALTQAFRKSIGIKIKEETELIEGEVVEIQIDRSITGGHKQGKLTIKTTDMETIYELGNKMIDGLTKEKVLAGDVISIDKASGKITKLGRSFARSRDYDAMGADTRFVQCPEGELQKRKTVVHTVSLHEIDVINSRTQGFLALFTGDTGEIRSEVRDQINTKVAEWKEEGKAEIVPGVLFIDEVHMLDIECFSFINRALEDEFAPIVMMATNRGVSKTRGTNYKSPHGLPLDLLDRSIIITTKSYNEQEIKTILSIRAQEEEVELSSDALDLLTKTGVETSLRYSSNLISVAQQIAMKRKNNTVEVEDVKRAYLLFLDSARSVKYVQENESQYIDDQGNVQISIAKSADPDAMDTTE
# T1 sequence (Q9Y230 whole entry): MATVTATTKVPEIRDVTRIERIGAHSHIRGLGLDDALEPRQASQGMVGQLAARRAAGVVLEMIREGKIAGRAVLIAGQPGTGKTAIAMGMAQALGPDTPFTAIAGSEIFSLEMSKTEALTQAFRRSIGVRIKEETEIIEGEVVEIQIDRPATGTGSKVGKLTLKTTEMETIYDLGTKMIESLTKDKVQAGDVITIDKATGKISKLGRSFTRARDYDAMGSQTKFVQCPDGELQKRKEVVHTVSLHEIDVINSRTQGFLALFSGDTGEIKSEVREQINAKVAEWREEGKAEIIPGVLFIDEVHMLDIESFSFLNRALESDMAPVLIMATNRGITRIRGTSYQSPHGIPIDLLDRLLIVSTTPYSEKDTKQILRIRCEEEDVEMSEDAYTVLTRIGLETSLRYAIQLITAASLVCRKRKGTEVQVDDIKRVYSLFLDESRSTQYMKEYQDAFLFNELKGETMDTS
inhibition at 15 µM (RUVBL2),SMILES,% inhibition at 30 μM (ScRvb2)
~40%,CNC(=O)c1cc(Oc2ccc(NC(=O)Nc3ccc(Cl)c(C(F)(F)F)c3)c(F)c2)ccn1 [regorafenib],–
–,CNC(=O)c1cc(Oc2ccc(NC(=O)Nc3ccc(Cl)c(C(F)(F)F)c3)cc2)ccn1 [sorafenib],sorafenib can inhibit RUVBL2 from Saccharomyces cerevisiae (named ScRvb2) although less efficiently
